{"source": "paper PMC11876601", "about": "(Molecular Systems Biology, 2025)", "origin": "cited, not measured here", "key": {"EIF3J": {"biological_target": "EIF3J", "details": "5 cell line mix lysate, Kinobeads ε, ref Reinecke et al. (2023), cited from earlier work"}, "ABL1": {"tested_on": "ABL1", "details": "ABL1, 5 cell line mix lysate, Kinobeads ε, ref Reinecke et al. (2023), cited from earlier work"}, "LOC102724428;SIK1": {"tested_on": "LOC102724428;SIK1", "set-up": "method as in Reinecke et al. (2023)", "details": "LOC102724428;SIK1, 5 cell line mix lysate, Kinobeads ε, ref Reinecke et al. (2023), cited from earlier work"}, "EGFR": {"biological_target": "EGFR", "set-up": "method as in Reinecke et al. (2023)", "details": "5 cell line mix lysate, Kinobeads ε, ref Reinecke et al. (2023), cited from earlier work"}, "PRKAB2": {"tested_on": "PRKAB2", "set-up": "method as in Reinecke et al. (2023)", "details": "PRKAB2, 5 cell line mix lysate, Kinobeads ε, ref Reinecke et al. (2023), cited from earlier work"}, "PRKAG2": {"tested_on": "PRKAG2", "set-up": "method as in Reinecke et al. (2023)", "details": "PRKAG2, 5 cell line mix lysate, Kinobeads ε, ref Reinecke et al. (2023), cited from earlier work"}, "TAOK1": {"tested_on": "TAOK1", "set-up": "method as in Reinecke et al. (2023)", "details": "TAOK1, 5 cell line mix lysate, Kinobeads ε, ref Reinecke et al. (2023), cited from earlier work"}, "MAP3K12": {"tested_on": "MAP3K12", "set-up": "method as in Reinecke et al. (2023)", "details": "MAP3K12, 5 cell line mix lysate, Kinobeads ε, ref Reinecke et al. (2023), cited from earlier work"}, "FGFR3;FGFR4": {"tested_on": "FGFR3;FGFR4", "set-up": "method as in Reinecke et al. (2023)", "details": "FGFR3;FGFR4, 5 cell line mix lysate, Kinobeads ε, ref Reinecke et al. (2023), cited from earlier work"}, "BTK": {"biological_target": "BTK", "set-up": "method as in Reinecke et al. (2023)", "details": "5 cell line mix lysate, Kinobeads ε, ref Reinecke et al. (2023), cited from earlier work"}, "TBK1": {"tested_on": "TBK1", "set-up": "method as in Klaeger et al. (2017)", "details": "lysate 4 cell line mix (Colo205, K-562, MV-4-11, and SK-N-BE(2)), Kinobeads y, ref Klaeger et al. (2017); cited from earlier work"}, "PRKCA": {"tested_on": "PRKCA", "set-up": "method as in Klaeger et al. (2017)", "details": "lysate 4 cell line mix (Colo205, K-562, MV-4-11, and SK-N-BE(2)), Kinobeads y, ref Klaeger et al. (2017); cited from earlier work"}, "ACVR1": {"tested_on": "ACVR1", "set-up": "method as in Klaeger et al. (2017)", "details": "lysate 4 cell line mix (Colo205, K-562, MV-4-11, and SK-N-BE(2)), Kinobeads y, ref Klaeger et al. (2017); cited from earlier work"}, "STK3": {"tested_on": "STK3", "set-up": "method as in Klaeger et al. (2017)", "details": "STK3, 4 cell line mix lysate, Kinobeads y, ref Klaeger et al. (2017); cited from earlier work"}}}
{"smiles": "COc1cc(N2CCC(N3CCN(C)CC3)CC2)ccc1Nc1ncc(Cl)c(Nc2ccccc2P(C)(C)=O)n1", "note": "[Brigatinib]", "values": [{"measurement": "Kd", "setting": "EIF3J; read-out: KDapp", "result": 0.434, "unit": "µM"}, {"measurement": "EC50", "setting": "EIF3J", "result": 0.434, "unit": "µM"}, {"measurement": "pKDapp", "setting": "EIF3J", "result": 6.36}, {"measurement": "EC50", "setting": "ABL1", "result": 3.46, "unit": "µM"}, {"measurement": "pKDapp", "setting": "ABL1", "result": 5.72}, {"measurement": "Kd", "setting": "ABL1; read-out: KDapp", "result": 1.89, "unit": "µM"}, {"measurement": "EC50", "setting": "LOC102724428;SIK1", "result": 0.106, "unit": "µM"}, {"measurement": "pKDapp", "setting": "LOC102724428;SIK1", "result": 6.98}, {"measurement": "Kd", "setting": "LOC102724428;SIK1; read-out: KDapp", "result": 0.106, "unit": "µM"}, {"measurement": "Kd", "setting": "EGFR; read-out: KDapp", "result": 0.146, "unit": "µM"}, {"measurement": "EC50", "setting": "EGFR", "result": 0.184, "unit": "µM"}, {"measurement": "pKDapp", "setting": "EGFR", "result": 6.84}, {"measurement": "EC50", "setting": "PRKAB2", "result": 0.546, "unit": "µM"}, {"measurement": "pKDapp", "setting": "PRKAB2", "result": 6.48}, {"measurement": "Kd", "setting": "PRKAB2; read-out: KDapp", "result": 0.328, "unit": "µM"}, {"measurement": "EC50", "setting": "PRKAG2", "result": 0.51, "unit": "µM"}, {"measurement": "pKDapp", "setting": "PRKAG2", "result": 6.48}, {"measurement": "Kd", "setting": "PRKAG2; read-out: KDapp", "result": 0.329, "unit": "µM"}, {"measurement": "EC50", "setting": "TAOK1", "result": 0.847, "unit": "µM"}, {"measurement": "pKDapp", "setting": "TAOK1", "result": 6.25}, {"measurement": "Kd", "setting": "TAOK1; read-out: KDapp", "result": 0.563, "unit": "µM"}, {"measurement": "EC50", "setting": "MAP3K12", "result": 1.04, "unit": "µM"}, {"measurement": "pKDapp", "setting": "MAP3K12", "result": 6.25}, {"measurement": "Kd", "setting": "MAP3K12; read-out: KDapp", "result": 0.563, "unit": "µM"}, {"measurement": "EC50", "setting": "FGFR3;FGFR4", "result": 0.617, "unit": "µM"}, {"measurement": "pKDapp", "setting": "FGFR3;FGFR4", "result": 6.21}, {"measurement": "Kd", "setting": "FGFR3;FGFR4; read-out: KDapp", "result": 0.617, "unit": "µM"}, {"measurement": "Kd", "setting": "BTK; read-out: KDapp", "result": 1.48, "unit": "µM"}, {"measurement": "EC50", "setting": "BTK", "result": 3.78, "unit": "µM"}, {"measurement": "pKDapp", "setting": "BTK", "result": 5.83}]}
{"smiles": "C[C@]12O[C@H](C[C@]1(O)CO)n1c3ccccc3c3c4c(c5c6ccccc6n2c5c31)CNC4=O", "note": "[Lestaurtinib]", "values": [{"measurement": "EC50", "setting": "TBK1", "result": "[…]"}, {"measurement": "EC50", "setting": "PRKCA", "result": 2.47, "unit": "µM"}, {"measurement": "EC50", "setting": "ACVR1", "result": "[…]"}, {"measurement": "EC50", "setting": "STK3", "result": 0.0392, "unit": "µM"}]}
